Laboratory results reported in patent US20170129919A1, “CYCLIC DIPEPTIDE-CONTAINING COMPOSITION” (Suntory Holdings Limited, priority 2014, published 2017).
In brackets after ≈: the same amount, converted by molar mass. Like-named read-outs stand apart in the source and are kept apart here.

How the values were obtained:
hyperuricemic mice = experiment: Action of lowering serum uric acid levels for hyperuricemic mice (potassium oxonate model); assay type: in vivo, BALBc mice; conditions: 1 mg/kg orally; FIG. 2
Protocol: As to the animals used, male 7-week old BALBc mice were purchased from CLEA Japan, Inc., and subjected to an experiment after a one-week period of conditioning. The animals were bred in a breeding room with air-conditioning facilities (temperature: 23.5°±1.0° C., humidity: 55±10 RH %, the number of ventilation: 12 to 15 times/hour, illuminated: from 7:00 to 19:00 each day). During the period of conditioning, the mice were allowed to take a commercially available feed (CE-2, manufactured by CLEA Japan, Inc.) and distilled water ad libitum.
Oxonic acid is a substance that raises a blood uric acid level by inhibiting a urikase, a metabolic enzyme for uric acid. In view of the above, potassium oxonate (PO) was administered, thereby generating hyperuricemic model animals (see, Planta Med 2009; 75:302-306). Studies were made on the following 6 groups:
In all the groups that include PO administration, PO previously suspended in a 0.5% aqueous CMC-Na solution at 250 mg/kg was administered, and Normal Group was administered with a 0.5% aqueous CMC-Na solution, each being administered intraperitoneally. […] After 2 hours from the administration with PO, the blood was collected from the abdominal vena cava under anesthesia. After blood removal, the liver was harvested. The collected blood was allowed to stand at room temperature for 45 minutes, and centrifuged at 8,000 rpm for 10 minutes to recover sera. Here, the sera and the liver were preserved at −80° C. until the measurements were carried out.
The serum uric acid level was measured using 7180 Clinical Analyzer (manufactured by Hitachi Technologies).
The actions of lowering serum uric acid levels of soybean peptide heat-treated products were studied using hyperuricemic model animals, in the same manner as in Test Example 2. Concretely, the animals used were furnished in the same manner as in Test Example 2, and studies were made on the following 5 groups.
For each of the above-mentioned groups, the administration and the blood collection were carried out in the same manner as in Test Example 2 to measure a serum uric acid level. […]
Here, the heat-treated product of the soybean peptide obtained by dissolving a soybean peptide (Hinute AM, manufactured by FUJI OIL, CO., LTD.) in distilled water in a concentration of 200 mg/mL, heating to 132° C. for 3 hours, and lyophilizing the heated mixture was used. The content of the cyclic dipeptide of the soybean peptide heat-treated product was measured according to LC-MS/MS under the following conditions. […]

xanthine oxidase (XO) = experiment: In vitro xanthine oxidase (XO) inhibiting action; assay type: biochemical; conditions: for IC50: PBS pH 7.5, xanthine substrate, absorbance at 295 nm after 30 minutes, mean±standard error; for Inhibition Rate (%) at Concentration of 100 μM: Table 2, XO inhibition at 100 μM; for action of inhibiting a xanthine oxidase (in words): summary of Tables 1 to 3
Protocol: The in vitro xanthine oxidase (XO) inhibiting action was studied on 210 kinds of cyclic dipeptides, linear dipeptides Tyr-Gly and Gly-Tyr, and an amino acid Tyr. […] Thereafter, 20 μL of a 250 μM xanthine solution previously dissolved in the PBS was added thereto, and the absorbance after 30 minutes was measured using a spectrophotometer (Synegy HT, manufactured by Bio Tek). The XO inhibition rate (%) at each concentration was calculated by the following calculation formula, to obtain activities of inhibiting XO (IC50 values).

Solubility in water = assay type: physicochemical; conditions: Table 5; for Solubility in Water: distilled water, 25° C., ultrasonication 30 minutes, visual examination, tested at 5, 1, 0.1, 0.01 mM, insoluble = not dissolved at 0.01 mM
Protocol: Concretely, each compound was added to distilled water (manufactured by Otsuka Pharmaceutical Co., Ltd.) at an ambient temperature (25° C.) so as to have a final concentration of 5 mM, and the mixture was stirred under ultrasonication for 30 minutes to dissolve. […] However, none of the compounds dissolved, so that distilled water was further added thereto so as to have a final concentration of 0.01 mM, and the mixture was stirred under ultrasonication for 30 minutes, but still no compounds dissolved.

[1] = Table 3, read-out: IC50 (Activity of Inhibiting XO of Phe-Containing Cyclic Dipeptides)
[2] = Table 1, read-out: IC50 (Activity of Inhibiting XO of Tyr-Containing Cyclic Dipeptides)

IC50 (xanthine oxidase (XO); [1])	Solubility in Water (Solubility in water)	Compound	also measured
		Oc1ncnc2[nH]ncc12 [Allopurinol, reference compound]	serum uric acid level vs PO Group (hyperuricemic mice): significant difference in effects on the PO Group
> 100 µM		CC1NC(=O)C(Cc2ccccc2)NC1=O (centres unmarked) [Cyclo(Ala-Phe), reference compound]	
	insoluble	CC1NC(=O)C(Cc2ccc(O)cc2)NC1=O (centres unmarked) [Cyclo(Ala-Tyr), cycloalanyltyrosine]	Inhibition Rate (%) at Concentration of 100 μM (xanthine oxidase (XO)): 8.3%
> 300 µM		N=C(N)NCCCC1NC(=O)C(Cc2ccccc2)NC1=O (centres unmarked) [Cyclo(Arg-Phe), reference compound]	
	5 mM (≈ 1600 µg/mL)	N=C(N)NCCCC1NC(=O)C(Cc2ccc(O)cc2)NC1=O (centres unmarked) [Cyclo(Arg-Tyr), cycloarginyltyrosine]	solubility in water (in words) (Solubility in water): high solubility in water; IC50 (xanthine oxidase (XO); [2]): 211 µM
> 300 µM		NC(=O)CC1NC(=O)C(Cc2ccccc2)NC1=O (centres unmarked) [Cyclo(Asn-Phe), reference compound]	
	1 mM (≈ 277 µg/mL)	NC(=O)C[C@@H]1NC(=O)[C@H](Cc2ccc(O)cc2)NC1=O [Cyclo(Asn-Tyr), cycloasparaginyltyrosine]	solubility in water (in words) (Solubility in water): high solubility in water; IC50 (xanthine oxidase (XO); [2]): 113 µM
> 300 µM		O=C(O)CC1NC(=O)C(Cc2ccccc2)NC1=O (centres unmarked) [Cyclo(Asp-Phe), reference compound]	
	5 mM (≈ 1390 µg/mL)	O=C(O)C[C@@H]1NC(=O)[C@H](Cc2ccc(O)cc2)NC1=O [Cyclo(Asp-Tyr), cycloaspartyltyrosine]	solubility in water (in words) (Solubility in water): high solubility in water; IC50 (xanthine oxidase (XO); [2]): 172 µM
> 300 µM		NC(=O)CCC1NC(=O)C(Cc2ccccc2)NC1=O (centres unmarked) [Cyclo(Gln-Phe), reference compound]	
	1 mM (≈ 291 µg/mL)	NC(=O)CC[C@@H]1NC(=O)[C@H](Cc2ccc(O)cc2)NC1=O [Cyclo(Gln-Tyr), cycloglutaminyltyrosine]	solubility in water (in words) (Solubility in water): high solubility in water; Inhibition Rate (%) at Concentration of 100 μM (xanthine oxidase (XO)): 42.6%
> 100 µM		O=C(O)CCC1NC(=O)C(Cc2ccccc2)NC1=O (centres unmarked) [Cyclo(Glu-Phe), reference compound]	
	5 mM (≈ 1460 µg/mL)	O=C(O)CC[C@@H]1NC(=O)[C@H](Cc2ccc(O)cc2)NC1=O [Cyclo(Glu-Tyr), cycloglutamyltyrosine]	solubility in water (in words) (Solubility in water): high solubility in water; Inhibition Rate (%) at Concentration of 100 μM (xanthine oxidase (XO)): 0.4%
	1 mM (≈ 300 µg/mL)	O=C1N[C@@H](Cc2c[nH]cn2)C(=O)N[C@H]1Cc1ccc(O)cc1 [Cyclo(His-Tyr), cyclohistidyltyrosine]	solubility in water (in words) (Solubility in water): high solubility in water; Inhibition Rate (%) at Concentration of 100 μM (xanthine oxidase (XO)): 3.2%
> 100 µM		CCC(C)C1NC(=O)C(Cc2ccccc2)NC1=O (centres unmarked) [Cyclo(Ile-Phe), reference compound]	
	1 mM (≈ 276 µg/mL)	CCC(C)C1NC(=O)C(Cc2ccc(O)cc2)NC1=O (centres unmarked) [Cyclo(Ile-Tyr), cycloisoleucyltyrosine]	solubility in water (in words) (Solubility in water): high solubility in water; IC50 (xanthine oxidase (XO); [2]): 86.7 ± 2.8 µM
> 100 µM		CC(C)CC1NC(=O)C(Cc2ccccc2)NC1=O (centres unmarked) [Cyclo(Leu-Phe), reference compound]	
> 300 µM		NCCCCC1NC(=O)C(Cc2ccccc2)NC1=O (centres unmarked) [Cyclo(Lys-Phe), reference compound]	

IC50 (xanthine oxidase (XO); [1])	Solubility in Water (Solubility in water)	Compound	also measured
	5 mM (≈ 1460 µg/mL)	NCCCC[C@@H]1NC(=O)[C@H](Cc2ccc(O)cc2)NC1=O [Cyclo(Lys-Tyr), cyclolysyltyrosine]	solubility in water (in words) (Solubility in water): high solubility in water; Inhibition Rate (%) at Concentration of 100 μM (xanthine oxidase (XO)): 25.7%
> 100 µM		CSCCC1NC(=O)C(Cc2ccccc2)NC1=O (centres unmarked) [Cyclo(Met-Phe), reference compound]	
	5 mM (≈ 1470 µg/mL)	CSCCC1NC(=O)C(Cc2ccc(O)cc2)NC1=O (centres unmarked) [Cyclo(Met-Tyr), cyclomethionyltyrosine]	solubility in water (in words) (Solubility in water): high solubility in water; IC50 (xanthine oxidase (XO); [2]): 56.4 ± 2.9 µM
133 ± 25.2 µM		O=C1NC(Cc2ccccc2)C(=O)NC1CS (centres unmarked) [Cyclo(Phe-Cys), reference compound]	
> 100 µM		O=C1CNC(=O)C(Cc2ccccc2)N1 (centres unmarked) [Cyclo(Phe-Gly), reference compound]	
> 100 µM		O=C1NC(Cc2ccccc2)C(=O)NC1Cc1ccccc1 (centres unmarked) [Cyclo(Phe-Phe), reference compound]	
22.2 ± 0.8 µM	insoluble	O=C1N[C@@H](Cc2ccc(O)cc2)C(=O)N[C@H]1Cc1ccccc1 [Cyclo(Phe-Tyr), cyclophenylalanyltyrosine]	IC50 (xanthine oxidase (XO); [2]): 22.2 ± 0.8 µM; action of inhibiting a xanthine oxidase (in words) (xanthine oxidase (XO)): high action of inhibiting a xanthine oxidase
	1 mM (≈ 260 µg/mL)	O=C1N[C@@H](Cc2ccc(O)cc2)C(=O)N2CCC[C@@H]12 [Cyclo(Pro-Tyr), cycloprolyltyrosine]	solubility in water (in words) (Solubility in water): high solubility in water; Inhibition Rate (%) at Concentration of 100 μM (xanthine oxidase (XO)): 2.3%
> 300 µM		O=C1NC(Cc2ccccc2)C(=O)NC1CO (centres unmarked) [Cyclo(Ser-Phe), reference compound]	
	insoluble	O=C1NC(Cc2ccc(O)cc2)C(=O)NC1CO (centres unmarked) [Cyclo(Ser-Tyr), cycloseryltyrosine]	IC50 (xanthine oxidase (XO); [2]): 189 ± 52.5 µM
> 300 µM		CC(O)C1NC(=O)C(Cc2ccccc2)NC1=O (centres unmarked) [Cyclo(Thr-Phe), reference compound]	
	1 mM (≈ 264 µg/mL)	C[C@@H](O)[C@@H]1NC(=O)[C@H](Cc2ccc(O)cc2)NC1=O [Cyclo(Thr-Tyr), cyclothreonyltyrosine]	solubility in water (in words) (Solubility in water): high solubility in water; Inhibition Rate (%) at Concentration of 100 μM (xanthine oxidase (XO)): 2.6%
> 100 µM		O=C1NC(Cc2c[nH]c3ccccc23)C(=O)NC1Cc1ccccc1 (centres unmarked) [Cyclo(Trp-Phe), reference compound]	
	insoluble	O=C1N[C@@H](Cc2ccc(O)cc2)C(=O)N[C@H]1Cc1ccc(O)cc1 [Cyclo(Tyr-Tyr), cyclotyrosyltyrosine]	IC50 (xanthine oxidase (XO); [2]): 29.5 ± 2.9 µM; action of inhibiting a xanthine oxidase (in words) (xanthine oxidase (XO)): high action of inhibiting a xanthine oxidase
60.5 ± 2.4 µM		CC(C)C1NC(=O)C(Cc2ccccc2)NC1=O (centres unmarked) [Cyclo(Val-Phe), reference compound]	
	insoluble	CC(C)C1NC(=O)C(Cc2ccc(O)cc2)NC1=O (centres unmarked) [Cyclo(Val-Tyr), cyclovalyltyrosine]	IC50 (xanthine oxidase (XO); [2]): 79.4 ± 16.1 µM
	insoluble	cycloleucyltyrosine [Cyclo(Leu-Tyr)]	IC50 (xanthine oxidase (XO); [2]): 23.8 ± 5.3 µM; action of inhibiting a xanthine oxidase (in words) (xanthine oxidase (XO)): high action of inhibiting a xanthine oxidase
	insoluble	cyclotryptophanyltyrosine [Cyclo(Trp-Tyr)]	Inhibition Rate (%) at Concentration of 100 μM (xanthine oxidase (XO)): 19.1%

Compound	IC50 (xanthine oxidase (XO); [1])	Solubility in Water (Solubility in water)	also measured
O=C1NC(Cc2cnc[nH]2)C(=O)NC1Cc1ccccc1 (centres unmarked) [Cyclo(His-Phe), reference compound]	> 100 µM		
O=C1NC(Cc2ccccc2)C(=O)N2CCCC12 (centres unmarked) [Cyclo(Pro-Phe), reference compound]	> 100 µM		
